Earlier results in patent US7183293B2, “Ether derivatives useful as inhibitors of PDE4 isozymes” (Pfizer Inc., priority 2001, dated 2007).
One block for each compound: values may come before it.

What was measured:
[1] = test system: antigen-induced bronchospasm; details: rat
[2] = test system: 5-lipoxygenase; details: a number of species
[3] = test system: collagen induced arthritis
[4] = test system: PDE4B mutant enzyme; details: alanine for aspartate in the catalytic region
[5] = test system: dextran sulfate induced colitis; details: rat
[6] = test system: lipopolysaccharide-induced bowel erythrocyte extravasation; details: rats; for lipopolysaccharide-induced bowel erythrocyte extravasation: pretreatment i.p. 3×
[7] = test system: gastric parietal cells
[8] = test system: experimental allergic encephalomyelitis; details: marmoset
[9] = test system: pulmonary artery rings
[10] = test system: lipopolysaccharide-induced mesenteric blood flow fall; details: dogs
[11] = test system: T-cell mediated hepatic failure
[12] = test system: 5-lipoxygenase; details: in vivo
[13] = test system: tumor cells
[14] = in vivo
[15] = test system: psoriatic lesions; details: in vivo
[16] = test system: mineralized nodule formation and osteoclast-like cell formation
[17] = test system: bone loss; details: serial oral administrations
[18] = test system: rhinorrhea
[19] = test system: canine tracheal PDE4; details: at 100 nM
[20] = test system: LPS-stimulated ex vivo TNF release and PHA induced lymphocyte proliferation; details: oral dose of 300 mg
[21] = test system: mean pulmonary artery pressure; details: oral administration, clinical conditions
[22] = target: human PDE4B2B (Homo sapiens, UniProt Q07343)
[23] = test system: FEV1 and forced vital capacity
[24] = target: PDE4D (Homo sapiens, UniProt Q08499)
[25] = test system: bronchodilation; details: in vivo
[26] = test system: SCW-induced arthritis; details: in vivo
[27] = test system: rheumatoid arthritis; design: dose or concentration left out as unconfirmed; details: 35 patients

Sequence of PDE4D (Q08499 whole entry, species assumed): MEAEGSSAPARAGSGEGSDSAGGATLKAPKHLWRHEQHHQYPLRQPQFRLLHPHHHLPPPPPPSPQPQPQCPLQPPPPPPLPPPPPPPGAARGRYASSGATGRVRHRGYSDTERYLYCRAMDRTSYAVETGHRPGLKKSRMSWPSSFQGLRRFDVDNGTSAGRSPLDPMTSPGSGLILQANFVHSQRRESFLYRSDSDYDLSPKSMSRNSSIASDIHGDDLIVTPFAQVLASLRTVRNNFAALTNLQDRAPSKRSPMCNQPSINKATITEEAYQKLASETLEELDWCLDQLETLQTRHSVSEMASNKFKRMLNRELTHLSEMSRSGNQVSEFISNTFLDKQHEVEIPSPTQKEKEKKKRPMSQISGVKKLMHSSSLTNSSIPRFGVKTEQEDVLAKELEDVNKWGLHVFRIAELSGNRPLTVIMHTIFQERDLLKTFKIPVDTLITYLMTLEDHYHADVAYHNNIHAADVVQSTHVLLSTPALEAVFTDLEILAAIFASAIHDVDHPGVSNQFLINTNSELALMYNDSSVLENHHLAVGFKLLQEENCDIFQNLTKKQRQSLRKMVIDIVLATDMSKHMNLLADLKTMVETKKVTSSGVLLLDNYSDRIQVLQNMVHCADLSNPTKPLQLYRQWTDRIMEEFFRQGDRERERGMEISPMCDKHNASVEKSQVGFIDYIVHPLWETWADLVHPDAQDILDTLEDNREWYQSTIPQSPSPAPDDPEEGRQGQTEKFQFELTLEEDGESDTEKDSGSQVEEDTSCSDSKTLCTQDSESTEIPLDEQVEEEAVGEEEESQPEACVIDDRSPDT
Sequence of human PDE4B2B (Q07343 1-564 isoform Q07343-2): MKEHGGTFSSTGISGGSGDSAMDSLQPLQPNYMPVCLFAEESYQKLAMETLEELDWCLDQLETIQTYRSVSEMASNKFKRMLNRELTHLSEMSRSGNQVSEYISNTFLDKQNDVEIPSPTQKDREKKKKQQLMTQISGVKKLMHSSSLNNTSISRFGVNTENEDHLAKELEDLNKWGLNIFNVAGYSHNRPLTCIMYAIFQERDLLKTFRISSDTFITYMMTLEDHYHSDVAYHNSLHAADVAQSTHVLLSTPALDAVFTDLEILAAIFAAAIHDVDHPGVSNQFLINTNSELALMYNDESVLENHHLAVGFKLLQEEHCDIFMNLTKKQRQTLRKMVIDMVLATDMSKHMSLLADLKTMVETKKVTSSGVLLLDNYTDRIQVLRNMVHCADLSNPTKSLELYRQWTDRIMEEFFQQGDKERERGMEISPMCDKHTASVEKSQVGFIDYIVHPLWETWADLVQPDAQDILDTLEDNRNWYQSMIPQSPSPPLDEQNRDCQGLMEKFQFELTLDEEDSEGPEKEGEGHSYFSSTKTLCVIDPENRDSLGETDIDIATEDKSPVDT

Structure (SMILES): COc1ccc(C(=O)Nc2c(C)noc2C)cc1OC1CCCC1 [RPR-132294]
inhibition of antigen-induced bronchospasm [1]: activity

Structure (SMILES): COC1(c2cc(F)cc(OCc3ccc4c(ccc(=O)n4C)c3)c2)CCOCC1 [ZD-2138]
oral activity [2]: highly active orally

inhibition of mutant PDE4B [4]: critical for inhibition
stimulation of acid secretion [7]: very potent stimulator
Structure (SMILES): COc1ccc(C2CNC(=O)C2)cc1OC1CCCC1 (centres unmarked) [rolipram]
development of the disease ([3]; 3 mg/kg twice daily when arthritis was apparent): progression of severity was halted
TNF-α and IFN-γ mRNA expression in regional lymph nodes ([3]; rat, in vivo): strong down-regulation
effects in dextran sulfate induced colitis (bleeding and inflammatory markers) [5]: beneficial effects comparable to prednisolone
lipopolysaccharide induced erythrocyte extravasation [6]: attenuated
lipopolysaccharide-induced bowel erythrocyte extravasation [6]: reduces
clinical signs and MRI abnormalities [8]: suppress the appearance of clinical signs
relaxant activities of isoproterenol and forskolin [9]: potentiates
lipopolysaccharide induced intestinal hypoperfusion [10]: attenuated
plasma activities of ALT, AST and SDH ([11]; 0.1 to 10 mg/kg i.p., mice): dose-dependently inhibited
concanavalin A-induced IL-4 release ([11]; mouse, in vivo): suppress

duration of action [12]: longer duration of action than zileuton
Structure (SMILES): C[C@H](C#Cc1ccc(Oc2ccc(F)cc2)o1)N(O)C(N)=O [Abbott-79175]

Structure (SMILES): Clc1nc2c(N3CCCC3)nc(N3CCNCC3)nc2nc1NCc1ccccc1 [Formula (0.0.55)]
inhibition of the growth of tumor cells [13]: micromolar concentrations

Structure (SMILES): CC(=O)CCCCn1c(=O)c2c(ncn2C)n(C)c1=O [pentoxifylline]
lipopolysaccharide-induced bowel erythrocyte extravasation [6]: reduces

inhibition of mutant PDE4B [4]: lose potency
Structure (SMILES): COc1ccc(C(=O)Nc2c(Cl)cncc2Cl)cc1OC1CCCC1 [RP-73,401]
emesis / nausea and vomiting [14]: elicit emesis

Structure (SMILES): CCCCOc1cc(CC2CNC(=O)N2)ccc1OC (centres unmarked) [Ro 20-1724]
adverse systemic or cutaneous effects [15]: without adverse systemic or cutaneous effects

Structure (SMILES): CCCCn1c(=O)c2c(ncn2CC(C)=O)n(CCCC)c1=O [denbufylline]
number of mineralized nodules [16]: increase in the number of mineralized nodules
lipopolysaccharide induced erythrocyte extravasation [6]: attenuated
lipopolysaccharide induced intestinal hypoperfusion [10]: attenuated
bone mineral density of femurs [17]: inhibit the decrease in the bone mineral density

Structure (SMILES): Nc1nc2c([nH]1)c(=O)n(CC1CC1)c(=O)n2CC1CC1 [BRL-61,063]
emesis / nausea and vomiting [14]: nausea and vomiting

Structure (SMILES): O=c1c2cccnc2n(-c2cccc([N+](=O)[O-])c2)c(=O)n1Cc1ccncc1 [RS-23,544]
emesis / nausea and vomiting [14]: elicit emesis

Structure (SMILES): CCCn1c(=O)c2c(C)nc(CC)n2c2nc(OC)ccc21 [Example D-22888]
rhinorrhea ([18]; antigen-challenged pig): inhibit rhinorrhea
anti-allergic effect ([18]; pig, in vivo): strong anti-allergic affect

Structure (SMILES): CCCCn1c(=O)c2c(ncn2CC(C)=O)n(CCCC)c1=O [debufylline]
lipopolysaccharide-induced bowel erythrocyte extravasation [6]: reduces

Structure (SMILES): COc1ccc(C2CNC(=O)NC2)cc1O[C@H]1C[C@@H]2CC[C@H]1C2 [CP-80,633]
emesis / nausea and vomiting [14]: elicit emesis

Structure (SMILES): COc1ccc(C(=O)Cc2c(Cl)cncc2Cl)c2c1OCCCCO2 [Formula (0.0.49)]
inhibition of canine tracheal PDE4 [19]: almost complete inhibition

Structure (SMILES): CCCn1c(=O)c2[nH]cnc2n(-c2ccc(Cl)cc2)c1=O [LAS31025]
effects in dextran sulfate induced colitis (bleeding and inflammatory markers) [5]: beneficial effects comparable to prednisolone

Structure (SMILES): CCNc1ncn(Cc2ccc(OC)c(OC3CCCC3)c2)c2nc(C(C)C)nc1-2 [Example V-11294A]
reducing TNF levels and lymphocyte proliferation [20]: effective

Structure (SMILES): CSc1ccc(C(=O)c2[nH]c(=O)[nH]c2C)cc1 [enoximone]
mean pulmonary artery pressure [21]: decreases

affinity to the catalytic and the HARB sites [22]: equal affinity
Structure (SMILES): COC(=O)N1C[C@H](c2ccc(OC)c(OC3CCCC3)c2)[C@@](C)(C(C)=O)C1 (racemic) [Formula (0.0.61), (R,R)-(+/−)-methyl-3-acetyl-4-[3-(cyclopentyloxy)-4-methoxyphenyl]-3-methyl-1-pyrrolidine carboxylate]

Structure (SMILES): COc1ccc([C@]2(C#N)CC[C@@H](C(=O)O)CC2)cc1OC1CCCC1 [SB-207,499]
FEV and forced vital capacity (FVC) ([23]; 15 mg twice a day for six weeks): increrases
FEV1 ([23]; four week trial, six week study, 15 mg twice a day): improved FEV1

potency against PDE4 subtypes [24]: more potent against PDE4D
Structure (SMILES): O=c1c2cccnc2n(-c2cccc([N+](=O)[O-])c2)c(=O)n1Cc1ccncc1 [RS-25,344]

Structure (SMILES): Cc1[nH]c(=O)c(C#N)cc1-c1ccncc1 [milrinone]
adverse events [25]: tachycardia and hypotension
bronchodilation [25]: short-lived bronchodilation
protection against induced bronchoconstriction [25]: slight degree of protection
mean pulmonary artery pressure [21]: decreases
relaxant activities of isoproterenol and forskolin [9]: same effect

inhibition of mutant PDE4B [4]: lose potency
Structure (SMILES): COc1ccc(CC2CNC(=O)N2)cc1OC1CCCC1 (centres unmarked) [Ro-20-1724]

Structure (SMILES): COc1cc2c(cc1OC)[C@@H]1CN(C)CC[C@@H]1N=C2c1ccc(NC(C)=O)cc1 [benafentrine]
bronchodilation [25]: bronchodilation only when administered by inhalation

Structure (SMILES): COc1ccc(C(=O)Nc2c(Cl)cncc2Cl)cc1OC1CCCC1 [RP73401]
amelioration of disease (joint destruction, synovitis, fibrosis) [26]: significant amelioration of disease
clinical improvement, C-reactive protein and IL-6 serum levels [27]: positive trend towards clinical improvement
